Assay [1] relates to Erk activation in FL83B mouse liver cells. Briefly: Western blot of phospho-Erk activation in FL83B cells. The format is cell-based. From the text: Western blot protocol of phospho-Akt (columns 2-4) and phospho-Erk (columns5-7). As explained above and in Example 4, Western blots of phospho-Akt and phospho-Erk are a more accurate and precise and quantitative measure of Akt phosphorylation than ICWB measurements. Insulin-dependent phospho-Akt is a direct measurement of insulin sensitivity, and we expect that Shc inhibitors will stimulate phospho-Akt more than phospho-Erk. All of the drugs listed in FIG. 5A stimulated insulin-dependent phospho-Akt at some concentration. Method. Mouse liver cells FL83B were plated at density of 400.000 cells per well of 6 well pate and cultivated for 48 hours, media was changed to DMEM, 25 mM glucose serum free and 16 hours later the cells were treated with drug at the indicated concentration for one hour. Control wells were treated with the vehicle (DMSO), in certain control wells the metabolic (Akt) insulin signaling was blocked with wortmannin. The cells were induced with indicated concentration of insulin for 10 minutes, total protein was extracted and the Western Blots were performed with indicated antibody as described above. […]

Assay [2] relates to corticosterone-treated mice. The experiment in a line: Corticosterone-treated mice: blood glucose and ITT. The format is in vivo, mouse. As for the experimental part: Mice were kept pathogen-free throughout the study. All experimental procedures were approved by the Institutional Animal Care and Use Committee (IACUC) and were performed in compliance with local, state, and federal regulations. Diet was LM-485 (Teklad 7012) with nutrient composition: protein=19.9%, carbohydrates=53.7%, fat=5.7%. The source of lipid was soybean oil, protein-soybean meal, energy source-ground oats. Group of 36 13-month old male and female mice were tested with ITT before the study began and were started on Corticosterone in drinking water at 100 mg/L. Body weight and blood glucose were monitored. FIG. 12A illustrates experimental flow. Mice were started on corticosterone at day 1 and continued on it through the study. At day 13 the group was randomly split 1:1 and half were given idebenone as a mixture with peanut butter daily, another half was given placebo daily for another 5 days. All mice continued receiving corticosterone in drinking water for these 5 days, and then ITT were performed. For insulin tolerance tests mice were fasted for six hours and given intra-peritoneal injection of insulin (0.2 U/kg); then blood glucose was measured in the indicated time course (FIG. 12D). FIG. 12B bars are body weights in grams. […] (FIG. 12D) ITT of Control, CS+placebo, and CS+idebenone groups. […] Error bars are standard deviations. *=p<0.05. […]

Take `COc1cc2ncnc(Nc3ccc(Oc4ccccc4)cc3)c2cc1OC` [SrcI-1]: in assay [1], the Erk activation result is recorded as “decreased Erk activation” and the P-Akt/P-Erk ratio result was “increasing the P-Akt/P-Erk ratio”.

On to `COC1=C(OC)C(=O)C(CCCCCCCCCCO)=C(C)C1=O` [idebenone], for which the Blood glucose level entry in assay [2] (18th day, corticosterone 100 mg/L in drinking water, idebenone daily 5 days, versus placebo) is given as “significant decrease comparing to placebo group in blood glucose level”. For the same compound, in assay [2] (40, 60, and 90 minutes after insulin 0.2 U/kg, versus corticosterone plus placebo), the “Sensitivity to insulin in ITT” value is reported as “significantly more sensitive to insulin than corticosterone plus placebo”.

The values are drawn from patent publication US20180064659A1, “AGENTS USEFUL FOR TREATING OBESITY, DIABETES AND RELATED DISORDERS” (The Regents of the University of California, priority 2015, published 2018).
